From EPA's ToxRefDB 2

Experiments:
[1] = tested on: rat; settings: Subchronic oral toxicity in rodents, Diet, dose end: 90 day
[2] = tested on: rat; settings: Combined chronic toxicity/carcinogenicity, sprague dawley, Oral, Feed, dose end: 24 month, group: systemic
[3] = tested on: dog; settings: Chronic toxicity; beagle; Oral; Feed; dose end: 12 month; group: cholinesterase; cholinesterase / cholinesterase / cholinesterase / erythrocyte cholinesterase (che) + cholinesterase / cholinesterase / cholinesterase / …
[4] = tested on: dog; settings: Subchronic oral toxicity in nonrodent, beagle, Capsule, dose end: 6 month
[5] = tested on: rat; settings: Chronic toxicity, Oral, Feed, dose end: 26 month, group: systemic
[6] = tested on: rat; settings: Combined chronic toxicity/carcinogenicity, wistar, Oral, Feed, dose end: 26 month
[7] = tested on: rat; settings: Developmental neurotoxicity study; long evans; Injection; Subcutaneous; dose end: 30 PND; group: cannot be grouped; cholinesterase / cholinesterase / cholinesterase / cholinesterase (che) + systemic / in life observation / body weight / offspring (pup) …
[8] = tested on: rat; settings: Carcinogenicity, fischer, Oral, Gavage/Intubation, dose end: 103 week, group: systemic
[9] = tested on: mouse; settings: Carcinogenicity; b6c3f1; Oral; Gavage/Intubation; dose end: 104 week; group: systemic; systemic / in life observation / body weight / body weight + systemic / pathology microscopic / stomach / cyst + systemic / pathology …
[10] = tested on: mouse; settings: Subchronic oral toxicity in rodents, b6c3f1, Gavage/Intubation, dose end: 13 week, group: systemic, systemic / pathology microscopic / stomach / cytoplasmic alteration + systemic / pathology microscopic / stomach / hyperkeratosis + systemic…
[11] = tested on: rat; settings: Subchronic oral toxicity in rodents, fischer, Gavage/Intubation, dose end: 13 week, group: systemic
[12] = group: cholinesterase, cholinesterase / cholinesterase / cholinesterase / erythrocyte cholinesterase (che) + cholinesterase / cholinesterase / cholinesterase / …
[13] = group: systemic, systemic / in life observation / body weight / body weight gain + systemic / in life observation / mortality / mortality
[14] = systemic / pathology microscopic / nerve / [other] + systemic / pathology microscopic / nerve / proliferation
[15] = group: cholinesterase, cholinesterase / cholinesterase / cholinesterase / plasma cholinesterase (che)
[16] = group: systemic, systemic / clinical chemistry / [other] / [other]
[17] = systemic / pathology microscopic / eye / [other]
[18] = systemic / pathology microscopic / eye / [other] + systemic / pathology microscopic / eye / atrophy + systemic / pathology microscopic / eye…
[19] = group: systemic, systemic / in life observation / body weight / body weight + systemic / in life observation / clinical signs / [other] + systemic / in life …
[20] = systemic / in life observation / clinical signs / defecation (diarrhea) + systemic / in life observation / clinical signs / urination
[21] = systemic / in life observation / clinical signs / defecation (diarrhea) + systemic / in life observation / clinical signs / urination + …
[22] = systemic / in life observation / body weight / body weight + systemic / in life observation / clinical signs / defecation (diarrhea) + …

CCOP(=S)(OCC)Oc1ccc([N+](=O)[O-])cc1 [Parathion]
LEL [1, 12]: 0.4 mg/kg/day | LOAEL [1, 12]: 4 mg/kg/day | NEL [1, 12]: 0.04 mg/kg/day | NOAEL [1, 12]: 0.4 mg/kg/day | LEL [1, 13]: 4 mg/kg/day | LOAEL [1, 13]: 4 mg/kg/day | NEL [1, 13]: 0.4 mg/kg/day | NOAEL [1, 13]: 0.4 mg/kg/day | NEL ([2]; systemic / in life observation / clinical signs / abnormal gait): 0.25 mg/kg/day | LOAEL [2, 14]: 2.5 mg/kg/day | NOAEL [2, 14]: 0.25 mg/kg/day | LEL ([2]; systemic / pathology microscopic / nerve / [other] + systemic / pathology microscopic / nerve / proliferation + systemic / in life …): 2.5 mg/kg/day | LEL [3]: 0.01 mg/kg/day | LOAEL [3]: 0.01 mg/kg/day | NEL [3]: < 0.01 mg/kg/day | NOAEL [3]: < 0.01 mg/kg/day | LEL [4, 15]: 0.0024 mg/kg/day | LOAEL [4, 15]: 0.0079 mg/kg/day | NEL [4, 15]: < 0.0024 mg/kg/day | NOAEL ([4]; group: cholinesterase, cholinesterase / cholinesterase / cholinesterase / plasma cholinesterase (che) + cholinesterase / cholinesterase / cholinesterase / brain (…): 0.0024 mg/kg/day | LEL [4, 16]: 0.794 mg/kg/day | LOAEL [4, 16]: > 0.794 mg/kg/day | NEL [4, 16]: 0.0079 mg/kg/day | NOAEL [4, 16]: ≥ 0.794 mg/kg/day | NEL [5, 17]: 0.4 mg/kg/day | NOAEL [5, 17]: 0.4 mg/kg/day | LEL [5, 18]: 1.6 mg/kg/day | LOAEL [5, 18]: 1.6 mg/kg/day | LEL [6, 12]: 0.42 mg/kg/day | LOAEL [6, 12]: 0.42 mg/kg/day | NEL [6, 12]: 0.1 mg/kg/day | NOAEL [6, 12]: 0.1 mg/kg/day | LOAEL [6, 19]: > 1.75 mg/kg/day | NOAEL [6, 19]: ≥ 1.75 mg/kg/day | LEL ([6]; group: systemic, systemic / pathology microscopic / eye / [other]): 0.53 mg/kg/day | NEL ([6]; group: systemic, systemic / pathology microscopic / eye / [other] + systemic / clinical chemistry / aspartate aminotransferase (ast/sgot) / aspartate …): 0.14 mg/kg/day | LEL [7]: 1.3 mg/kg/day | LOAEL [7]: > 1.9 mg/kg/day | NEL [7]: < 1.3 mg/kg/day | NOAEL [7]: ≥ 1.9 mg/kg/day

CC1(C)S[C@@H]2[C@H](NC(=O)COc3ccccc3)C(=O)N2[C@H]1C(=O)[O-].[K+] [Penicillin VK]
LEL [8, 20]: 500 mg/kg/day | NEL [8, 20]: < 500 mg/kg/day | LOAEL [8, 21]: > 1000 mg/kg/day | NOAEL [8, 21]: ≥ 1000 mg/kg/day | LEL [9]: 500 mg/kg/day | LOAEL [9]: > 1000 mg/kg/day | NEL [9]: < 500 mg/kg/day | NOAEL [9]: ≥ 1000 mg/kg/day | LEL [10]: 100 mg/kg/day | LOAEL [10]: > 3000 mg/kg/day | NEL [10]: < 100 mg/kg/day | NOAEL [10]: ≥ 3000 mg/kg/day | LOAEL [11, 22]: > 3000 mg/kg/day | NEL [11, 22]: 370 mg/kg/day | NOAEL [11, 22]: ≥ 3000 mg/kg/day | LEL ([11]; systemic / in life observation / clinical signs / defecation (diarrhea)): 750 mg/kg/day
